# Laboratory results published in patent publication US10960036B2, “Pharmaceutical composition for preventing and treating alpha herpes virus infection, containing, as active ingredient, Elaeocarpus sylvestris extract or fraction thereof” (priority 2016, dated 2021).
# Test system: varicella-zoster virus (VZV)
# Assay: Expression of VZV replication-related genes (gB, ORF62) in infected MRC-5 cells, real-time PCR
# Format: cell-based
# Conditions: 50 μg/mL, 3 days after infection
# Description: Viruses used to measure anti-replication activity were varicella-zoster virus (VZV), herpes simplex virus-1 (HSV-1) and herpes simplex virus-2 (HSV-2), which were obtained from the American Type Culture Collection (ATCC), and MRC-5 and Vero cells were also obtained from the ATCC and cultured. In a 5% CO2 incubator at 37° C., Vero cells were cultured in RPMI1640 medium containing 10% fetal bovine serum and 25 mM HEPES (2-[4-(2-hydroxyethyl) piperazin-1-yl] ethanesulfonic acid), and MRC-5 cells were cultured in MEM medium containing 10% fetal bovine serum and 25 mM HEPES.
# Next, on 3 days after the infection, the cells were collected, and the inhibitory effect on viral replication was analyzed by real-time PCR using VZV glycoprotein B (gB) and open reading frame 62 (ORF62) DNAs.
# MRC-5 cells were infected with VZV by culturing them with VZV-infected cells at a cell-to-cell ratio of 1:8, and treated with the Elaeocarpus sylvestris extract and its fractions (extract, hexane (Hx), dichloromethane (MC), ethyl acetate (EA), butanol (BuOH), and distilled water (DW) 50 μg/mL). On 3 days after the infection, the cells were collected, and the inhibitory effect against viral replication was analyzed by real-time PCR using VZV glycoprotein B (gB) and open reading frame 62 (ORF62) DNAs.
# In order to analyze the VZV replication inhibitory effect and target of Elaeocarpus sylvestris extract components, MRC-5 cells were infected with VZV by culturing them with VZV-infected cells at a cell-to-cell ratio of 1:8, and treated with 50 μg/mL of each of Elaeocarpus sylvestris extract fractions (DS-1, DS-2, DS-3 and DS-4). On 3 days after the infection, the cells were collected, and the viral replication inhibitory effect of the fractions was analyzed by real-time PCR using VZV glycoprotein B (gB) and open reading frame 62 (ORF62) DNAs.
Compound,expression of VZV glycoprotein B (gB),expression of VZV open reading frame 62 (ORF62)
"COC(=O)c1cc(O)c(O)c(O)c1 (single isomer, unassigned) [DS-1, Methyl gallate]",decreased,decreased
"COC(=O)c1cc(O)c(O)c(O)c1 (single isomer, unassigned) [DS-2, Methyl gallate]",decreased,decreased
"O=C1O[C@H]2[C@@H]3OC(=O)c4cc(O)c(O)c(O)c4-c4c(cc(O)c(O)c4O)C(=O)OC[C@H]2O[C@@H](OC(=O)c2cc(O)c(O)c(O)c2)[C@@H]3OC(=O)c2cc(O)c(O)c3c2[C@@H]2C1=CC(=O)[C@](O)(O3)C2(O)O [DS-3, Geraniin]",decreased,decreased
Casuarictin [DS-4],decreased,decreased
